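In this assay, cells in 96-well plates receive the compound at five concentrations for 48 hours. Endpoints are linearly interpolated between the surrounding concentrations. TGI: total growth inhibition.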
Assays:
Experiment in all cases: NCI-60 cell line screen, 48 h
[1] = tested on: 786-0 renal
[2] = tested on: A498 renal
[3] = tested on: A549 NSCLC
[4] = tested on: ACHN renal
[5] = tested on: BT-549 breast
[6] = tested on: CAKI-1 renal
[7] = tested on: CCRF-CEM leukemia
[8] = tested on: COLO 205 colon
[9] = tested on: DU-145 prostate
[10] = tested on: EKVX NSCLC
[11] = tested on: HCC-2998 colon
[12] = tested on: HCT-116 colon
[13] = tested on: HCT-15 colon
[14] = tested on: HL-60(TB) leukemia
[15] = tested on: HOP-62 NSCLC
[16] = tested on: HOP-92 NSCLC
[17] = tested on: HS 578T breast
[18] = tested on: HT29 colon
[19] = tested on: IGROV1 ovarian
[20] = tested on: K-562 leukemia
[21] = tested on: KM12 colon
[22] = tested on: LOX IMVI melanoma
[23] = tested on: M14 melanoma
[24] = tested on: MALME-3M melanoma
[25] = tested on: MCF7 breast
[26] = tested on: MDA-MB-231 breast
[27] = tested on: MDA-MB-435
[28] = tested on: MOLT-4 leukemia
[29] = tested on: NCI-H226 lung
[30] = tested on: NCI-H23 lung
[31] = tested on: NCI-H460 lung
[32] = tested on: NCI-H522 lung
[33] = tested on: NCI/ADR-RES ovarian
[34] = tested on: OVCAR-3 ovarian
[35] = tested on: OVCAR-4 ovarian
[36] = tested on: OVCAR-5 ovarian
[37] = tested on: OVCAR-8 ovarian
[38] = tested on: PC-3 prostate
[39] = tested on: RPMI-8226 leukemia
[40] = tested on: RXF 393 renal
[41] = tested on: SF-268 CNS
[42] = tested on: SF-295 CNS
[43] = tested on: SF-539 CNS
[44] = tested on: SK-MEL-2 melanoma
[45] = tested on: SK-MEL-28 melanoma
[46] = tested on: SK-MEL-5 melanoma
[47] = tested on: SK-OV-3 ovarian
[48] = tested on: SN12C renal
[49] = tested on: SNB-19 CNS
[50] = tested on: SNB-75 CNS
[51] = tested on: SR leukemia
[52] = tested on: SW-620 colon
[53] = tested on: T-47D breast
[54] = tested on: TK-10 renal
[55] = tested on: U251 CNS
[56] = tested on: UACC-257 melanoma
[57] = tested on: UACC-62 melanoma
[58] = tested on: UO-31 renal

SMILES: c1ccc2c(c1)Sc1ccccc1N2CC1CN2CCC1CC2 (stereo not drawn)
- TGI [1]: 19.1 µM
- TGI [2]: 24.7 µM
- TGI [3]: 22.8 µM
- TGI [4]: 22.2 µM
- TGI [5]: 27.8 µM
- TGI [6]: 21 µM
- TGI [7]: 14.3 µM
- TGI [8]: 3.12 µM
- TGI [9]: 19.4 µM
- TGI [10]: 24.3 µM
- TGI [11]: 2.6 µM
- TGI [12]: 12.8 µM
- TGI [13]: 19.6 µM
- TGI [14]: 20.3 µM
- TGI [15]: 27 µM
- TGI [16]: 25.2 µM
- TGI [17]: 26 µM
- TGI [18]: 11.2 µM
- TGI [19]: 23.2 µM
- TGI [20]: 4.72 µM
- TGI [21]: 17.5 µM
- TGI [22]: 11.5 µM
- TGI [23]: 3.36 µM
- TGI [24]: 3.91 µM
- TGI [25]: 11.2 µM
- TGI [26]: 15 µM
- TGI [27]: 8.7 µM
- TGI [28]: 16.5 µM
- TGI [29]: 30.2 µM
- TGI [30]: 26.1 µM
- TGI [31]: 11.3 µM
- TGI [32]: 16.5 µM
- TGI [33]: 24.5 µM
- TGI [34]: 11.9 µM
- TGI [35]: 20.8 µM
- TGI [36]: 24.5 µM
- TGI [37]: 27.2 µM
- TGI [38]: 17.2 µM
- TGI [39]: 9.99 µM
- TGI [40]: 10.2 µM
- TGI [41]: 20.9 µM
- TGI [42]: 29.1 µM
- TGI [43]: 21.8 µM
- TGI [44]: 9.52 µM
- TGI [45]: 4.32 µM
- TGI [46]: 7.63 µM
- TGI [47]: 26 µM
- TGI [48]: 23.7 µM
- TGI [49]: 22.6 µM
- TGI [50]: 9.56 µM
- TGI [51]: 7.83 µM
- TGI [52]: 13.5 µM
- TGI [53]: 8.65 µM
- TGI [54]: 19.3 µM
- TGI [55]: 14.5 µM
- TGI [56]: 3.48 µM
- TGI [57]: 10.5 µM
- TGI [58]: 19.4 µM

— PubChem BioAssay (NCI)
